In patent publication US20230165242A1, “RODENTICIDAL BAIT AND METHOD OF CONTROLLING TARGET HARMFUL RODENTS” (priority 2020, published 2023):

What was measured:
[1] = in vivo; cited from earlier work
[2] = system: warfarin-sensitive male OFA-Sprague-Dawley rats; assay: Prothrombin level, Quick's time (bromadiolone / cholecalciferol gavage); format: in vivo, rat
Source text: Warfarin-sensitive male OFA-Sprague-Dawley rats (Charles River, L′Arbresles, France) are fed by gavage for 3 consecutive days with a gavage solution containing bromadiolone (LIPHATECH, France) and cholecalciferol (Sigma-Aldrich, France) in a solvent consisting of 95% (v/v) of oil and 5% (v/v) of DMSO. During this period of gavage, the rats are fed with a conventional solid feed and water in unlimited amounts. The concentrations of bromadiolone and cholecalciferol in the gavage solution are 0.1 g/kg (100 ppm) and 7.5 g/kg (7500 ppm) respectively. Each rat receives daily a volume of gavage solution calculated to correspond to 1 mL of gavage solution per kilogram of body weight. The OFA-Sprague-Dawley rats in two control groups are fed by gavage in the same conditions with gavage solutions containing bromadiolone (alone) at a concentration of 100 ppm or cholecalciferol (alone) at a concentration of 7500 ppm, respectively. 24 hours after the last gavage, a volume of blood is taken from each rat by intracardiac puncture and placed in a specimen tube containing sodium citrate. The animals are euthanized after puncture and the plasma is prepared by centrifugation. Quick's time (or clotting time) is evaluated on the plasma supplemented with sodium citrate, then decalcified and recalcified in the presence of calcium thromboplastin. Quick's time is evaluated by means of an optical device for clotting analysis (Option 2plus, Bio Mèrieux®). The results are presented [FIG. 2]. The average Quick's time measured on the plasma from the rats fed by gavage with bromadiolone (bar “B”) is 12.4 seconds (±1.8), the average Quick's time measured on the plasma from the rats fed by gavage with cholecalciferol (bar “C”) is 12.4 seconds (±0.9) and the average Quick's time measured on the plasma from the rats fed by gavage with the composition comprising bromadiolone and cholecalciferol (bar “D”) is 14.1 seconds (±2.7). The differences in values of Quick's time measured between the three groups of rats are not significant. The rats in the group of rats that received the combination of bromadiolone and cholecalciferol coagulate in the same way as the rats in the group of rats that received the gavage solution containing bromadiolone on the one hand and the rats in the group of rats that received the gavage solution containing cholecalciferol on the other hand. Quick's time for rats treated with a control solution formed from oil (95%, v/v) and DMSO (5%, v/v) is (bar “A”) 12.8 seconds (±2.3). Neither the gavage solution containing bromadiolone in combination with cholecalciferol, nor the gavage solution containing bromadiolone alone, nor the gavage solution containing cholecalciferol induces an increase of Quick's time relative to the control. […]

[3] = system: warfarin-sensitive male OFA-Sprague-Dawley rats; assay: Synergy of bromadiolone and cholecalciferol, gavage, survival; format: in vivo, rat; details: gavage 5 consecutive days; bromadiolone 0.1 mg/kg alone, cholecalciferol 7.5 mg/kg alone, or both combined; after 20 days of observation
Source text: A group of 10 warfarin-sensitive male OFA-Sprague-Dawley rats (Charles River, L′Arbresles, France), aged 10 weeks and with a body weight between 160 and 180 g, are fed by gavage for 5 consecutive days with a gavage solution containing bromadiolone (LIPHATECH, France) and cholecalciferol (Sigma-Aldrich, France) in a solvent consisting of 95% (v/v) of oil and 5% (v/v) of DMSO. During this period of gavage, the rats are fed with a conventional solid feed and water in unlimited amounts. The rats are fed by gavage with a volume of this gavage solution so as to administer an amount of bromadiolone corresponding to 0.1 mg of bromadiolone per kilogram of body weight of the rat fed by gavage and an amount of cholecalciferol corresponding to 7.5 mg of cholecalciferol per kilogram of body weight of the rat fed by gavage. The rats in two control groups, each consisting of 10 male OFA-Sprague-Dawley rats, are fed by gavage in the same conditions with gavage solutions containing, respectively, bromadiolone alone so as to administer an amount of bromadiolone corresponding to 0.1 mg of bromadiolone per kilogram of body weight of the rat fed by gavage and cholecalciferol alone so as to administer an amount of cholecalciferol corresponding to 7.5 mg of cholecalciferol per kilogram of body weight of the rat fed by gavage. […]

[4] = system: warfarin-sensitive male OFA-Sprague-Dawley rats; assay: Synergy of difethialone and cholecalciferol on warfarin-sensitive rats, gavage, survival; format: in vivo, rat; details: gavage once a day for 3 days; difethialone 125 μg/kg alone or combined with cholecalciferol 7.5 mg/kg; 20 days of observation
Source text: A group of warfarin-sensitive male OFA-Sprague-Dawley rats (Charles River, L′Arbresles, France), aged 10 weeks and with a body weight between 160 and 180 g, are fed by gavage once a day for 3 consecutive days with a gavage solution containing difethialone (LIPHATECH, France) and cholecalciferol (Sigma-Aldrich, France) in a solvent consisting of 95% (v/v) of oil and 5% (v/v) of DMSO. During this period of gavage, the rats are fed with a conventional solid feed and water in unlimited amounts. The amounts of difethialone and cholecalciferol administered are 125 μg per kilogram of body weight of the rat fed by gavage and 7.5 mg per kilogram of body weight of the rat fed by gavage, respectively. The rats in two control groups, each consisting of OFA-Sprague-Dawley rats, are fed by gavage in the same conditions with gavage solutions containing difethialone alone (125 μg/kg) or cholecalciferol alone (7.5 mg/kg), respectively. The percentage of rats surviving gavage is recorded daily, for 20 days counting from the first day of gavage. The results presented [FIG. 3] show the variation of the percentage of rodents surviving (in %) as a function of time (t, in days) following the first day of gavage. The rats fed by gavage with the difethialone solution (♦) have 100% survival after 20 days of observation. […]

[5] = system: warfarin-sensitive male OFA-Sprague-Dawley rats; assay: Dose/rodenticidal response effect of difethialone on warfarin-sensitive rats; format: in vivo, rat; details: gavage, 21 days
Experimental: A gavage solution containing difethialone (LIPHATECH, France) in a solvent consisting of 95% (v/v) of oil and 5% (v/v) of DMSO is administered once a day for 3 consecutive days to warfarin-sensitive male OFA-Sprague-Dawley rats (Charles River, L′Arbresles, France), aged 10 weeks and with a body weight between 160 and 180 g. During this period of gavage, the rats are fed with a conventional solid feed and water in unlimited amounts. The doses of difethialone administered to the OFA-Sprague-Dawley rats, given in Table 6 hereunder, are expressed in micrograms of difethialone administered per kilogram of body weight of the gavage-fed rodent.
The percentage of rats surviving gavage is recorded daily for 21 days counting from the first day of gavage.

[6] = system: Female Sprague-Dawley rats that are homozygotic carriers of the Y139F mutation in the Vkorc1 gene; assay: Synergy of difethialone and cholecalciferol on warfarin-resistant female Sprague-Dawley Y139F rats; format: in vivo, rat; details: gavage once a day for 3 days; difethialone 0.125 mg/kg alone, cholecalciferol 7.5 mg/kg alone, or both combined; 22 days of observation
Source text: Female Sprague-Dawley rats that are homozygotic carriers of the Y139F mutation in the Vkorc1 gene, aged 10 weeks, are acclimatized for 5 days in the presence of a conventional solid feed and water in unlimited amounts. These female Sprague-Dawley Y139F rats are fed by gavage once a day for 3 consecutive days with a gavage solution containing difethialone (LIPHATECH, France) and cholecalciferol (Sigma-Aldrich, France) in a solvent consisting of 95% (v/v) of oil and 5% (v/v) of DMSO. During this period of gavage, the rats are fed with a conventional solid feed and water in unlimited amounts. The amounts of difethialone and cholecalciferol administered are 0.125 mg per kilogram of body weight of the rat fed by gavage and 7.5 mg per kilogram of body weight of the rat fed by gavage, respectively. The rats in two control groups, each consisting of OFA-Sprague-Dawley […] rats, are fed by gavage in the same conditions with gavage solutions containing, respectively, difethialone alone so as to administer an amount of difethialone corresponding to 0.125 mg per kilogram of body weight of the rat fed by gavage and cholecalciferol alone so as to administer an amount of cholecalciferol corresponding to 7.5 mg per kilogram of body weight of the rat fed by gavage. The percentage of rats surviving gavage is noted daily for 21 days counting from the first day of gavage. […]

[7] = system: male Sprague-Dawley rats that have undergone introgression, homozygotic carriers of the Y139F mutation in the Vkorc1 gene; assay: Dose/rodenticidal response effect of difethialone on warfarin-resistant male Y139F rats; format: in vivo, rat; details: for Mortality, %: gavage, 21 days
Experimental: A gavage solution containing difethialone (LIPHATECH, France) in a solvent consisting of 95% (v/v) of oil and 5% (v/v) of DMSO is administered once a day for 3 consecutive days to male Sprague-Dawley rats that have undergone introgression, which are homozygotic carriers of the Y139F mutation in the Vkorc1 gene. During this period of gavage, the rats are fed with a conventional solid feed and water in unlimited amounts. The doses of difethialone administered to the Sprague-Dawley rats that have undergone introgression, given in Table 9 hereunder, are expressed in micrograms of difethialone administered per kilogram of body weight of the gavage-fed rodent.
The percentage of rats surviving gavage is noted daily for 21 days counting from the first day of gavage. 100% of the Sprague-Dawley rats that had undergone introgression survive gavage for 3 days with 0.125 mg of difethialone per kilogram of body weight per day.

[8] = system: warfarin-sensitive male OFA-Sprague-Dawley rats; assay: Prothrombin level, Quick's time (difethialone gavage); format: in vivo, rat; details: difethialone solution 100 ppm, 1 mL/kg
Experimental: Nine warfarin-sensitive male OFA-Sprague-Dawley rats (Charles River, L′Arbresles, France) are fed by gavage for 3 consecutive days with difethialone (LIPHATECH, France) in solution in a mixture consisting of 90% (v/v) of oil and 10% (v/v) of DMSO. The concentration of difethialone in the gavage solution is 0.1 g/kg (100 ppm). Each rat receives daily a volume of gavage solution calculated to correspond to 1 mL of gavage solution per kilogram of its body weight […]. 24 hours after the last gavage, a volume of blood is taken from each rat by intracardiac puncture and placed in a specimen tube containing sodium citrate. The animals are euthanized after puncture and the plasma is prepared by centrifugation. […] Quick's time (or clotting time) is evaluated on the plasma supplemented with sodium citrate, then decalcified and recalcified in the presence of calcium thromboplastin. Quick's time is evaluated by means of an optical device for clotting analysis (Option 2plus, Bio Mèrieux®). The average Quick's time measured on the plasma from the rats fed by gavage with difethialone is 23.4 seconds (±6.1). For comparison, the average Quick's time of control rats fed by gavage with the solution without difethialone is 17.5 seconds (±2.1). The difference in values of Quick's time of the rats fed by gavage with the difethialone solution and with the control solution without difethialone is not significant.

[9] = dose 100 μg/kg once a day for 3 days
[10] = dose 500 μg/kg once a day for 3 days

## C=C1/C(=C\C=C2/CCC[C@]3(C)[C@@H]([C@H](C)CCCC(C)(C)O)CC[C@@H]23)C[C@@H](O)C[C@@H]1O [Calcitriol, 1,25-dihydroxycholecalciferol]
[1]
  half-life in the body: ~5 h

## O=c1oc2ccccc2c(O)c1C(CC(O)c1ccc(-c2ccc(Br)cc2)cc1)c1ccccc1 (stereo not shown) [bromadiolone, 3-[3-(4′-bromo[1,1′-biphenyl]-4-yl)-3-hydroxy-1-phenylpropyl]-4-hydroxy-2H-1-benzopyran-2-one]
[2]; 3 daily gavages, bromadiolone 100 ppm and/or cholecalciferol 7500 ppm solution, 1 mL/kg
  anticoagulant effect (increase of Quick's time relative to the control): not anticoagulants
[2]; plasma 24 hours after last of 3 daily gavages, 1 mL/kg of solution with bromadiolone 100 ppm and/or cholecalciferol 7500 ppm
  average Quick's time (clotting time): 12.4 s
[3]
  percentage of rats surviving: 100%

## O=c1sc2ccccc2c(O)c1C1CC(c2ccc(-c3ccc(Br)cc3)cc2)Cc2ccccc21 (stereo not shown) [difethialone, 3-(4′bromobiphenyl-4-yl)-1-(4-hydroxythiocoumarin-3-yl)-1,2,3,4-tetrahydronaphthalene]
[4]
  percentage of rats surviving: 100%
[5]; dose 50 μg/kg once a day for 3 days
  Mortality, %: 0%
[5]; [9]
  Mortality, %: 0%
[5]; dose 150 μg/kg once a day for 3 days
  Mortality, %: 40%
[5]; dose 200 μg/kg once a day for 3 days
  Mortality, %: 100%
[5]; [10]
  Mortality, %: 100%
[6]
  percentage of rats surviving: 100%
[7]; [9]
  Mortality, %: 0%
[7]; dose 125 μg/kg once a day for 3 days
  Mortality, %: 0%
[7]; dose 250 μg/kg once a day for 3 days
  Mortality, %: 100%
[7]; [10]
  Mortality, %: 100%
[7]; gavage for 3 days with 0.125 mg of difethialone per kilogram of body weight per day
  rats surviving gavage: 100%
[8]; 3 daily gavages
  anticoagulant effect (increase in Quick's time relative to the control): not anticoagulating
  haemorrhagic sign: No haemorrhagic sign
[8]; plasma 24 hours after last of 3 daily gavages
  average Quick's time (clotting time): 23.4 s
